# Results published in patent US20210015819A1, “METHODS FOR TREATMENT OF CANCERS WITH EGFR ACTIVATING MUTATIONS” (Board of Regents, The University of Texas System, priority 2018, published 2021).
# Where two headings read alike, the source gives them in different places.
# Tested on: YUL0019 PR8 cells
# Assay: Drug sensitivity of poziotinib resistant YUL0019 cells (FIG. 8)
# Type: cell-based
smiles,measurement,setting,value
Cc1csc(-c2nnc(Nc3ccc(Oc4ncccc4-c4ccnc(N)n4)cc3)c3ccccc23)c1 [AMG 900],Sensitivity of YUL0019 PR8 (poziotinib resistant) cells,listed as AMG900,sensitive
same,Sensitivity of YUL0019 PR8 (poziotinib resistant) cells,listed as AMG-900,highly sensitive
COc1cc(Nc2ncc3c(n2)-c2ccc(Cl)cc2C(c2c(F)cccc2OC)=NC3)ccc1C(=O)O [MLN8237 (Alisertib)],Sensitivity of YUL0019 PR8 (poziotinib resistant) cells,listed as Alisertib,sensitive
same,Sensitivity of YUL0019 PR8 (poziotinib resistant) cells,listed as alisertib,highly sensitive
Cc1ccc(C(=O)N(CCCN)[C@@H](c2nc3cc(Cl)ccc3c(=O)n2Cc2ccccc2)C(C)C)cc1 [Ispinesib],Sensitivity of YUL0019 PR8 (poziotinib resistant) cells,,highly sensitive
same,Sensitivity of YUL0019 PR8 (poziotinib resistant) cells,listed as ispinasib,sensitive
CN1CC[C@H](c2c(O)cc(O)c3c(=O)cc(-c4ccccc4Cl)oc23)[C@H](O)C1 [Alvocidib],Sensitivity of YUL0019 PR8 (poziotinib resistant) cells,,highly sensitive
CC[C@@H]1C(=O)N(C)c2cnc(Nc3ccc(C(=O)N[C@H]4CC[C@H](N5CCN(CC6CC6)CC5)CC4)cc3OC)nc2N1C(C)C [BI6727 (Volasertib)],Sensitivity of YUL0019 PR8 (poziotinib resistant) cells,,highly sensitive
"C=CC(=O)N1CCC(Oc2cc3c(Nc4ccc(Cl)c(Cl)c4F)ncnc3cc2OC)CC1 [poziotinib, 1-[4-[4-(3,4-dichloro-2-fluoroanilino)-7-methoxyquinazolin-6-yl]oxypiperidin-1-yl]prop-2-en-1-one]",Sensitivity of YUL0019 PR8 (poziotinib resistant) cells,,resistant
